Measurements reported in patent US10912788B2, “Methods and compositions for preventing and treating conditions related to alpha-synuclein” (PurePharm, Inc., priority 2018, dated 2021).

Experiments:
[1] = test system: PD patients with chronic constipation; assay: Open-label pilot study of GlcNAc (Villicote) on motor and constipation symptoms in Parkinson's Disease; type: in vivo, human
From the text: Participants were enlisted in a movement disorders outpatient clinic in Toronto, Canada. Inclusion criteria were a diagnosis of PD according to UK PD society brain bank criteria and chronic constipation that was not improved by laxatives. Exclusion criteria were the co-occurrence of conditions biasing results and/or changes of medications (including anti-constipation drugs).
This was an open-label study that sought to evaluate the efficacy of GlcNAc (Villicote®, Wellesley Therapeutics Inc.) on PD patients with chronic constipation who have previously used laxatives to relieve symptoms of constipation, to little or no avail. […] The self-reported assessments evaluated motor condition and dysfunction (fluctuation and dyskinesia) using section IV of the Unified Parkinson's Disease Rating Scale (UPDRS IV) and asking about presence and frequency of delayed onset (Delayed ON) and Failure of “on” response (no ON); Perceived severity and improvement in of motor dysfunction, and constipation by means of both Patients' Global Impression-Severity (PGI-S) and Patients' Global Impressions of Change (PGI-C) scale accordingly. Severity of Constipation was also evaluated by means of questions 5 and 6 of SCOPA-AUT [17] and the Constipation Scoring System (CSS). In addition, side-effects experienced while on Villicote and qualitative feedback on the product was noted.
Their age and disease duration was 65.7±7.5 and 11.7±5.1 years, respectively. Mean UPDRS-III at study entry was 22.1±10.9.

[2] = test system: pediatric treatment-resistant inflammatory bowel disease (Crohn's disease and ulcerative colitis patients); details: oral administration; reduced symptoms of gut inflammation, increased sulphated GAG expression; cited from earlier work
[3] = cited from earlier work
[4] = PD patients treated with GlcNAc
[5] = PD patients treated with GlcNAc, motor fluctuations

CC(=O)N[C@H]1C(O)O[C@H](CO)[C@@H](O)[C@@H]1O (some centres unmarked) [GlcNAc, N-acetylglucosamine]
No-ON ([1]; After GlcNAc, 1 month time point, PD patients, before GlcNAc 0.0): 0.0 | Delayed-ON ([1]; After GlcNAc, 1 month time point, PD patients, before GlcNAc 0.1 ± 0.4): 0.1 ± 0.4 | SCOPA-AUT (questions 5 and 6) ([1]; After GlcNAc, 1 month time point, PD patients, before GlcNAc 3.9 ± 1.9): 3.1 ± 1.7 | UPDRS-IV ([1]; After GlcNAc, 1 month time point, PD patients, before GlcNAc 3.9 ± 2.4): 3.9 ± 2.4 | CSS (Constipation Scoring System) ([1]; After GlcNAc, 1 month time point, PD patients, before GlcNAc 9.4 ± 6.1, Wilcoxon Z=−2.043, P=0.041): 6.5 ± 3.9 | tolerability ([1]; PD patients): well-tolerated | anti-constipation effect ([1]; PD patients failing drugs for constipation): effective anti-constipation agent | PGI-I Constipation [1, 4]: 1.6 ± 1.4 | PGI-S Constipation [1, 4]: 2.8 ± 1.3 | PGI-I Fluctuation [1, 5]: 0 | PGI-S Fluctuation [1, 5]: 0.8 ± 0.9 | effect on motor functions ([1]; PD patients, short follow-up): No effect was observed | efficacy in pediatric treatment-resistant inflammatory bowel disease [2]: therapeutic efficacy | solubility in water [3]: 25%
